This test is filed under the species Homo sapiens. In words: Binding affinity to human serum transferrin.

Here are results for one compound from ChEMBL document CHEMBL1139133, “A spectroscopic and molecular modeling study of sinomenine binding to transferrin” (Bioorg Med Chem Lett, 2007).

Regarding `COC1=C[C@@H]2[C@@H]3Cc4ccc(OC)c(O)c4[C@]2(CCN3C)CC1=O`, the Ka was 0.68 10^3/M.
